Laboratory results: EP4729518A1, “CRYSTAL FORM OF METHIONINE ADENOSYLTRANSFERASE 2A HETEROCYCLIC INHIBITOR, PREPARATION METHOD THEREFOR, AND USE THEREOF” (Nanjing Chia Tai Tianqing Pharmaceutical Co., Ltd., priority 2023, dated 2024)

Legend:
[1] = Solid state stability of crystal forms (XRD and HPLC); type: physicochemical
Method: Samples of the crystal forms B, H, and L were placed under the conditions of 25 °C/60% RH and 40 °C/75% RH for 17 days, and then the physicochemical stability of the samples was tested using XRD and HPLC. Table 24: Summary of solid state stability evaluation of crystal forms

[2] = Heating experiment via DSC followed by XRD; type: physicochemical
Excerpt: The heated samples were then collected and subjected to XRD analysis. Table 27: Summary of heating test results for various crystal forms

## Cn1cc2cc(-c3nn4ccc(C5CC5)nc4c(-c4ccc(OC(F)F)cc4)c3=O)ccc2n1 [Crystal form H, 2-cyclopropyl-9-[4-(difluoromethoxy)phenyl]-7-(2-methyl-2H-indazol-5-yl)-8H-pyrimido[1,2-b]pyridazin-8-one]
[1]; 0 day
  Crystal form change: No
  Purity: 98.62%
[1]; 25 °C/60% RH for 17 days
  change in crystal form or purity: no change in purity, but had a decrease in crystallinity
[1]; 25 °C/60% RH/17 days
  Crystal form change: No change in crystal form was observed, but the crystallinity decreased
  Purity: 98.59%
[1]; 40 °C/75% RH for 17 days
  change in crystal form or purity: no change in either crystal form or purity
[1]; 40 °C/75% RH/17 days
  Crystal form change: No
  Purity: 98.59%
[2]; Heating temperature 250 °C
  After heating (crystal form): Crystal form A

## Cn1cc2cc(-c3nn4ccc(C5CC5)nc4c(-c4ccc(OC(F)F)cc4)c3=O)ccc2n1 [Crystal form D, 2-cyclopropyl-9-[4-(difluoromethoxy)phenyl]-7-(2-methyl-2H-indazol-5-yl)-8H-pyrimido[1,2-b]pyridazin-8-one]
[2]; Heating temperature 150 °C
  After heating (crystal form): Crystal forms A + H + L

## Cn1cc2cc(-c3nn4ccc(C5CC5)nc4c(-c4ccc(OC(F)F)cc4)c3=O)ccc2n1 [Crystal form B, 2-cyclopropyl-9-[4-(difluoromethoxy)phenyl]-7-(2-methyl-2H-indazol-5-yl)-8H-pyrimido[1,2-b]pyridazin-8-one]
[1]; 0 day
  Crystal form change: No
  Purity: 98.69%
[1]; 25 °C/60% RH for 17 days
  change in crystal form or purity: no change in either crystal form or purity
[1]; 25 °C/60% RH/17 days
  Crystal form change: No
  Purity: 98.69%
[1]; 40 °C/75% RH for 17 days
  change in crystal form or purity: no change in either crystal form or purity
[1]; 40 °C/75% RH/17 days
  Crystal form change: No
  Purity: 98.68%
[2]; Heating temperature 250 °C
  After heating (crystal form): Crystal form A

## Cn1cc2cc(-c3nn4ccc(C5CC5)nc4c(-c4ccc(OC(F)F)cc4)c3=O)ccc2n1 [Crystal form I, 2-cyclopropyl-9-[4-(difluoromethoxy)phenyl]-7-(2-methyl-2H-indazol-5-yl)-8H-pyrimido[1,2-b]pyridazin-8-one]
[2]; Heating temperature 150 °C
  After heating (crystal form): Crystal form A

## Cn1cc2cc(-c3nn4ccc(C5CC5)nc4c(-c4ccc(OC(F)F)cc4)c3=O)ccc2n1 [Crystal form A, 2-cyclopropyl-9-[4-(difluoromethoxy)phenyl]-7-(2-methyl-2H-indazol-5-yl)-8H-pyrimido[1,2-b]pyridazin-8-one]
[2]; after heating (>100 °C)
  stability on heating: high-temperature stable crystal form

## Cn1cc2cc(-c3nn4ccc(C5CC5)nc4c(-c4ccc(OC(F)F)cc4)c3=O)ccc2n1 [Crystal form Q, 2-cyclopropyl-9-[4-(difluoromethoxy)phenyl]-7-(2-methyl-2H-indazol-5-yl)-8H-pyrimido[1,2-b]pyridazin-8-one]
[2]; Heating temperature 130 °C
  After heating (crystal form): Crystal form A

## Cn1cc2cc(-c3nn4ccc(C5CC5)nc4c(-c4ccc(OC(F)F)cc4)c3=O)ccc2n1 [Crystal form N, 2-cyclopropyl-9-[4-(difluoromethoxy)phenyl]-7-(2-methyl-2H-indazol-5-yl)-8H-pyrimido[1,2-b]pyridazin-8-one]
[2]; Heating temperature 100 °C
  After heating (crystal form): Crystal form A

## Cn1cc2cc(-c3nn4ccc(C5CC5)nc4c(-c4ccc(OC(F)F)cc4)c3=O)ccc2n1 [Crystal form M, 2-cyclopropyl-9-[4-(difluoromethoxy)phenyl]-7-(2-methyl-2H-indazol-5-yl)-8H-pyrimido[1,2-b]pyridazin-8-one]
[2]; Heating temperature 150 °C
  After heating (crystal form): Crystal form A

## Cn1cc2cc(-c3nn4ccc(C5CC5)nc4c(-c4ccc(OC(F)F)cc4)c3=O)ccc2n1 [Crystal form O, 2-cyclopropyl-9-[4-(difluoromethoxy)phenyl]-7-(2-methyl-2H-indazol-5-yl)-8H-pyrimido[1,2-b]pyridazin-8-one]
[2]; Heating temperature 150 °C
  After heating (crystal form): Crystal form A

## Cn1cc2cc(-c3nn4ccc(C5CC5)nc4c(-c4ccc(OC(F)F)cc4)c3=O)ccc2n1 [Crystal form P, 2-cyclopropyl-9-[4-(difluoromethoxy)phenyl]-7-(2-methyl-2H-indazol-5-yl)-8H-pyrimido[1,2-b]pyridazin-8-one]
[2]; Heating temperature 150 °C
  After heating (crystal form): Crystal form A
